For orientation: Km means the substrate concentration at which the rate is half of its maximum.

Among the data in publication PMC10720369 (Frontiers in Plant Science, 2023) are Km values, retold here.

The test system of the experiment is ScAMT3;3. The conditions noted are these: labelled compound; 0-500 µM 15N-NH4+; 35-d-old N-starved plants; line 35S::ScAMT3;3 by results and Figure 4C (methods b28 say proScAMT3;3 line); residual qko uptake present; NH3 may be the transported.

`N` [NH4+]: the Km stood at 271 µM.
